Measurements: ChEMBL document CHEMBL3507680, “University of Dundee, Gates Library screen for HepG2 cell viability”

Assay: Human HepG2 cell viability assay in 384 well format
Type: toxicity, cell-based
Set-up: dose 125 nL, time 70.5 hour; cytotoxicity at 70.5 h: concentration not given beside the values
Details: HepG2 cells, read-out: Inhibition

Row | SMILES | cytotoxicity at 70.5 h [%]
1 | Cc1ccccc1CC(=O)N[C@@H]1CCC[C@@H](N2CCNC(=O)C2)[C@@H]1O | -6.12
2 | CS(=O)(=O)N1C[C@H]2CN(CC3CC3)C(=O)[C@H]2C1 | -2.81
3 | O=C(Cc1cccnc1)N1CCCC2(CCN(CC3CCOCC3)C2)C1 (centres undefined) | 1.37
4 | CC(CNC(=O)c1cccnc1Oc1cccnc1)N(C)C (centres undefined) | -8.64
5 | CC(Cn1ccnc1)NC(=O)N1CCN(Cc2ccncc2)CC1 (centres undefined) | -2.15
6 | O=C1CCCCCN1CCc1nc(-c2cccnn2)no1 | -6.78
7 | Cc1cc(CN2CC[C@H]3C[C@H](c4nc(C5CC5)cs4)O[C@@H]3C2)no1 | -4.1
8 | CCCn1cc(C(=O)NCCC(=O)NC2CCCCC2)c(C)n1 | -4.38
9 | Cc1cccc2c(CCNS(=O)(=O)C3CCOC3)c[nH]c12 (centres undefined) | 12.8
10 | Cc1nn(C)c2nc(O)cc(C(F)(F)C(F)(F)F)c12 | 0.0459
11 | CC(C)c1nc(CNc2ccc(CCO)cc2)cs1 | 25.6
12 | NC(=O)c1cc2c(nc1Oc1ccc(CN3CCCC3)cc1F)CCC2 | -10.9
13 | CCCC(=O)N(CCCN1CCOCC1)c1nc2c(C)c(C)ccc2s1 | -14.7
14 | Cc1cc(C)n2ncc(CN3C[C@@H](O)[C@H](Oc4ccccc4)C3)c2n1 | -13.5
15 | Cc1nc(C2CCN(C(=O)c3cccnc3)CC2)c2sccn12 | 0.00673
16 | CC(C)c1noc(CN(Cc2ccccc2F)C2CC2)n1 | -12
17 | CCOC(=O)c1cnn(-c2cc(C)ccn2)c1N | 8.9
18 | CC(C)C(C(=O)N1CCN(Cc2ccccn2)CC1)n1cncn1 (centres undefined) | -10.2
19 | CC(NCC1=Cc2cc(Cl)ccc2OC1)c1nnc2n1CCCC2 (centres undefined) | -3.35
20 | COc1ccc(F)c(-c2cc(O)nc(N)n2)c1 | -9.12
21 | Cc1ccsc1C(=O)N1CCn2cnc(COCC3CC3)c2C1 | -4.7
22 | CC(CNC(=O)N1CCS(=O)(=O)CC1)Cc1cccs1 (centres undefined) | -1.72
23 | CN(C)C(=O)Cc1ccccc1NCc1noc(-c2ccccc2)n1 | 2.37

Row | SMILES | cytotoxicity at 70.5 h [%]
24 | O=C1CC2(CCN(C(=O)c3ccncc3)CC2)Oc2c(Cl)cc(Cl)cc21 | -5.1
25 | Cc1ccc(CN2CCC[C@@H]3CN(C(=O)c4ccco4)C[C@@H]32)s1 | -11
26 | Cc1cccc(-c2nnc(C(C)NCCn3cc(C)cn3)o2)c1 (centres undefined) | -7.5
27 | Cc1nn(-c2ncnc3[nH]cnc23)c2c1C(C(C)(C)C)CC(=O)N2 (centres undefined) | 0.0512
28 | CC(Oc1cc(Cl)cc(Cl)c1)C(=O)NCCC(=O)N(C)C (centres undefined) | -6.44
29 | COc1ccccc1CN(C)c1nccc(-c2cn(C)nc2C)n1 | -8.86
30 | Cc1nnc(N2C[C@H](Oc3ccccn3)[C@H]3OCCC[C@H]32)s1 | 8.06
31 | Cc1nc(C)c(CCNC(=O)NC2CC(=O)N(C(C)(C)C)C2)s1 (centres undefined) | -5.16
32 | CCSCCC(C)N(C)C(=O)c1ccc(C)o1 (centres undefined) | -1.62
33 | CCn1cc(NC(=O)NCCc2ccc3c(c2)OCO3)cn1 | -10.2
34 | O=C(NCCN1CCC(c2cccs2)CC1)c1ccccc1C(F)(F)F | 1.14
35 | COc1cc2c(cc1C(=O)N1CCCCC1c1ccccn1)CCC2 (centres undefined) | -24
36 | Cn1ccc(C(=O)N2CCCC(Cc3cccc4ncccc34)C2)n1 (centres undefined) | 35.2
37 | CC(=O)NC1CCCN(C(=O)Nc2cnc3c(cnn3C(C)C)c2)C1 (centres undefined) | -2.01
38 | CC1CCN(C(=O)C2CC(=O)N(c3cnn(C(C)C)c3)C2)CC1 (centres undefined) | -13.2
39 | Cc1ccc(CN2CCCC3(COCCN(Cc4c[nH]nn4)C3)C2)s1 (centres undefined) | 19.3
40 | CN(Cc1cccnc1)CC1CNCc2nccn2C1 (centres undefined) | 4.1
41 | Cc1cc(C[C@@H]2COC[C@H]2NCc2ccc(C(C)C)cc2)on1 | -8.05
42 | CC(O)(CNC(=O)c1cccnc1-n1cccn1)c1ccco1 (centres undefined) | -4.51
43 | COCCNC(=O)[C@H]1CC[C@@H]2[C@@H](CCN2S(C)(=O)=O)O1 | 11.5
44 | c1cc(CN2CCc3c(nnn3CC3CC3)C2COCC2CC2)co1 (centres undefined) | -14
45 | CCc1cnc2c(c1Nc1ccc(C)c(F)c1)c(=O)n(C)c(=O)n2C | -8.17
46 | CN1CCCc2c1nc1c(c2N)CCCC1 | 23

Row | SMILES | cytotoxicity at 70.5 h [%]
47 | COCC(=O)N1CCCC1c1cc(N2CCN(C(C)=O)CC2)cc(C)n1 (centres undefined) | 22.7
48 | CCOc1ccc(C(=O)N2CCCCC2Cn2nc(C)cc2C)cn1 (centres undefined) | 21
49 | c1ccc(SCCN2CCCC(Cn3ccnc3)C2)cc1 (centres undefined) | -5.94
50 | Cc1cc(C)nc(N2CCN(Cc3nccn3C)CC2)n1 | -2.76
51 | Cc1noc([C@H]2C[C@@H]3CCN(CC4CC4)C[C@H]3O2)n1 | -7.86
52 | COCc1cncc2c1CCN(Cc1cccs1)C2 | 0.63
53 | COc1ccc2c(c1)CCCN(C(C)C(=O)NC(N)=O)C2 (centres undefined) | -8.05
54 | Cc1nc(C(C)NCc2cc(O)c3cccc(F)c3n2)cs1 (centres undefined) | -6.76
55 | Cc1cnn(C2CN(Cc3nc(-c4ccccc4C)no3)C2)c1 | 11
56 | CCOC(C)c1nc(CN2CCN(c3nccc(C)n3)CC2)cs1 (centres undefined) | -8.29
57 | O=C(C1CCOCC1)N1CCc2ncc(CN3CCCCC3)n2CC1 | -10.2
58 | Cc1ncc(CN(C)Cc2nc3cc(Cl)ccc3n2C)s1 | -18.2
59 | O=C(Nc1ccccc1OC(F)(F)F)C1CCS(=O)(=O)C1 (centres undefined) | -9.01
60 | CNC(=O)C1Cc2ccccc2CN1C(=O)CC(C)C (centres undefined) | -10.1
61 | COCC(=O)NC[C@H]1OC[C@@H](NC2CCC(F)(F)CC2)[C@@H]1O | -8.37
62 | CCC(=O)N1CCC2(CC1)C(=O)N(C)CCN2Cc1csc(C)n1 | -4.08
63 | Cc1ccc(N2CC3(CCN(S(=O)(=O)C4CC4)C3)C2)nn1 | -5.86
64 | CN(Cc1cccnc1)[C@@H]1CN(Cc2nccn2C)[C@@H]2CCCO[C@H]12 | -4.78
65 | O=C(CNc1cc(-n2cnnn2)ccc1F)NCc1ccccc1 | -118
66 | CC(=O)N1CCCN(Cc2nnc(C(C)(C)C)o2)CC1 | 5.23
67 | CN(C)CC1CN(Cc2cccc(C#N)c2)Cc2nccn2C1 (centres undefined) | -6.48
68 | Cc1ccc(C(CNCc2cccnc2)N2CCOCC2)s1 (centres undefined) | -10.2
69 | Cc1nccn1-c1nccnc1C1CCCN(C)C1 (centres undefined) | -4.67

Row | SMILES | cytotoxicity at 70.5 h [%]
70 | Cc1noc(CN2CCC(Cc3ccc(F)cc3)CC2)n1 | -9.61
71 | CNC(=O)NC(=O)C(C)Nc1ccccc1OCCOC (centres undefined) | -10.8
72 | Cc1ccc(NC2CCN(C(=O)CCNS(C)(=O)=O)CC2)nn1 | -19
73 | COCc1nn(Cc2ccc(Cl)s2)c(=O)o1 | -13.7
74 | O=C(Cc1c[nH]c2ccccc12)N1CCC(Nc2cccnn2)CC1 | -10.3
75 | CC(C)c1nn(C)cc1CNCc1ccnc(N(C)C)c1 | -7.83
76 | CCN(CC)CC1CN(Cc2cccc(C#N)c2)Cc2nccn2C1 (centres undefined) | 5.06
77 | CN1CCN(C(=O)CCc2ccccc2)Cc2cccnc21 | 16.1
78 | N#Cc1c(Cl)nsc1NCc1ccnc(OCC(F)(F)F)c1 | -44.2
79 | CNC(=O)CN(C)CC1(c2ccc(Br)cc2)CC1 | 0.137
80 | COc1cccc(N2CCN(Cc3nccc(OC)c3OC)CC2=O)c1 | -0.0493
81 | COCc1noc(CCNc2ncnc3c2CCNCC3)n1 | -8.6
82 | CN(C)S(=O)(=O)c1ccc(F)c(NC(=O)COCC2CC2)c1 | -10.8
83 | Cc1ccc2c(c1)C(NCc1ccccn1)CC2 (centres undefined) | -12.6
84 | CCc1noc(C(C)N2CCC(N3CCCC3)CC2)n1 (centres undefined) | 24.3
85 | COCC(=O)N1C[C@@H](O)[C@H](N2CCN(c3ccccc3)CC2)C1 | -0.565
86 | Cc1nn(CC(=O)N2CCCCC2Cn2cccn2)c(C)c1Cl (centres undefined) | -0.411
87 | Cc1ncc(CN(C)Cn2nc(-c3ccccc3)oc2=O)s1 | -13.1
88 | CCc1nnc2n1CCN(C(=O)c1ccccc1OCC1CC1)C2 | 0.159
89 | Cc1ncc(CN(C)C2CCCN(Cc3noc(C4CC4)n3)C2)s1 (centres undefined) | -12.3
90 | Cc1cccc(CN2CCC3(CCN(Cc4ccccn4)C3)C2=O)c1 (centres undefined) | 27.9
91 | Cn1nc(C2CCCN(Cc3cccs3)C2)c2nccnc21 (centres undefined) | 3.16
92 | Cc1ccsc1CN(Cc1ncccc1C(=O)O)C1CC1 | -5.62

Row | SMILES | cytotoxicity at 70.5 h [%]
93 | Cc1ccc(-c2nc(CN3CCC(C(=O)N(C)C)CC3)cs2)o1 | 9.92
94 | FC(F)(F)c1nc(NC2CCCC2)c2ccccc2n1 | -12.8
95 | Cc1cnccc1-c1cnn(CCNC(=O)C(C)(C)C)c1C1CC1 | -9.87
96 | O=C(NC1CCCC1)[C@H]1CC[C@@H]2[C@@H](CCN2c2ncc(F)cn2)O1 | 13.4
97 | CN(CC(=O)N1CCOCC(CO)C1)Cc1ccc(F)cc1 (centres undefined) | -12.7
98 | O=C(CNC(=O)N1CCN(c2cccc(Cl)c2)CC1)Nc1ccccn1 | -9.74
99 | N#Cc1ccc(CN2C[C@@H]3OCC(=O)N(CC(N)=O)[C@@H]3C2)cc1 | -3.35
100 | Cc1csc2c(C3CCCN(C(=O)CCn4cncn4)C3)nc(C)n12 (centres undefined) | 1.05
101 | CCCc1nnc(N2CCC3(CC2)CC(=O)NC(=O)C3)o1 | 24.4
102 | OC(COc1ccccc1Br)COC1CCOCC1 (centres undefined) | 0.581
103 | CCCSCC(=O)N1CCCC2(CCC(=O)N(CCc3c[nH]cn3)C2)C1 (centres undefined) | -5.03
104 | Cc1[nH]ncc1C(=O)N(CC(C)C)CC(O)c1ccc(F)cc1 (centres undefined) | 14.2
105 | Cc1cc(CN2CCN(C(=O)c3sccc3C3CC3)CC2)no1 | -7.26
106 | O=C(c1cscn1)N1CCO[C@H]2[C@@H](Oc3ccccn3)CC[C@@H]21 | -10.4
107 | COc1cnc(N2CCC(c3ncc[nH]3)CC2)nc1 | 17.8
108 | COCCN(Cc1ccco1)Cc1nc(-c2ccc(C)c(F)c2)no1 | 17.2
109 | Cn1nc(-c2ccccc2)c(Br)c1C(=O)O | -23.2
110 | CN(C)C(=O)N1CCC2(CC1)CNc1ccc(F)cc12 | -2.37
111 | CCn1nnc2c1CCN(S(C)(=O)=O)C2COCc1ccccc1 (centres undefined) | 2.15
112 | Cc1cc(C)n(CC2CCCCN2CC(=O)Nc2nnc(C)s2)n1 (centres undefined) | -2.39
113 | Cc1csc(N2CCCN(c3cc(C)nc(C)c3C#N)CC2)n1 | -4
114 | Cc1n[nH]c(C2CN(C(=O)c3cnc[nH]3)CCO2)n1 (centres undefined) | -11.1
